Assay results published in patent publication US20170198196A1, “METHODS FOR CONTROLLING SOURING IN ENGINEERED SYSTEMS” (The Regents of the University of California, priority 2014, published 2017).
Entries after “also recorded” stand apart in the source; their conditions may differ. Where two headings read alike, the source gives them in different places.

Legend:
[1] = test system: marine enrichment cultures; test: Inhibition of sulfide production (Cline assay) in marine enrichment cultures; assay type: cell-based; conditions: for IC50: read-out: IC50 Seawater Sulfide Production
[2] = test system: Desulfovibrio cell suspensions; conditions: molybdate treated, after 60 minutes; cited from earlier work
[3] = test system: nitrate reducing bacteria; conditions: molybdate treated cell suspensions; cited from earlier work
[4] = test system: marine enrichment cultures; test: organism not typed; assay type: cell-based; conditions: read-out: IC50 Seawater Growth
[5] = marine enrichment cultures, SI>2 classified as selective

Molecule: N.NS(=O)(=O)O [ammonium sulfamate]
- selectivity and potency as inhibitor of sulfidogenesis versus growth, in words [1]: very weak and nonspecific inhibitors

Molecule: [O-][Cl+2]([O-])O [chlorate]
- selectivity and potency as inhibitor of sulfidogenesis versus growth, in words [1]: selective inhibitors of sulfidogenesis

Molecule: CS(C)(=O)=O [dimethyl sulfone]
- selectivity and potency as inhibitor of sulfidogenesis versus growth, in words [1, 5]: very weak and nonspecific inhibitors

Molecule: [O]=[Mo](=[O])([O-])[O-] [molybdate]
- intracellular ATP relative to controls [2]: ~10%
- intracellular ATP relative to controls [3]: ~80%
- selectivity and potency as inhibitor of sulfidogenesis versus growth, in words [1]: specific inhibitors of sulfide production
- selectivity index (SI = growth IC50/sulfide IC50) [1]: 100

Molecule: O=[N+]([O-])O [nitrate]
- Growth/Sulfide Ratio [1]: 41.3
- fold higher IC50 than MFP [1]: ~8 fold
- selectivity and potency as inhibitor of sulfidogenesis versus growth, in words [1]: selective inhibitors
- IC50 [1]: 6.34 mM

Molecule: O=NO [nitrite]
- selectivity and potency as inhibitor of sulfidogenesis versus growth, in words [1]: selective inhibitors
- selectivity index (SI = growth IC50/sulfide IC50) [1]: ≈ 2

Molecule: [O-][Cl+3]([O-])([O-])O [perchlorate]
- IC50 [4]: 36.3 mM
- Growth/Sulfide Ratio [1]: 11.19
- selectivity and potency as inhibitor of sulfidogenesis versus growth, in words [1]: selective inhibitors of sulfidogenesis
- IC50 [1]: 3.25 mM

Molecule: [O-][I+3]([O-])([O-])O [periodate]
- selectivity and potency as inhibitor of sulfidogenesis versus growth, in words [1, 5]: nonspecific, but potent inhibitors of all growth

Molecule: O=[Se](=O)(O)O [selenate]
- selectivity and potency as inhibitor of sulfidogenesis versus growth, in words [1]: very potent and selective inhibitors of sulfate reduction

Molecule: O=[Se](O)O [selenite]
- selectivity and potency as inhibitor of sulfidogenesis versus growth, in words [1]: very potent and selective inhibitors of sulfate reduction

Molecule: O=S(=O)(O)O [sulfate]
- selectivity and potency as inhibitor of sulfidogenesis versus growth, in words [1]: only inhibited growth and sulfidogenesis at high millimolar concentrations

Molecule: O=S(O)O [sulfite]
- selectivity and potency as inhibitor of sulfidogenesis versus growth, in words [1]: only inhibited growth and sulfidogenesis at high millimolar concentrations

Molecule: O=[Te](=O)(O)O [tellurate]
- selectivity and potency as inhibitor of sulfidogenesis versus growth, in words [1]: very potent and selective inhibitors of sulfate reduction

Molecule: O=[Te](O)O [tellurite]
- selectivity and potency as inhibitor of sulfidogenesis versus growth, in words [1]: very potent and selective inhibitors of sulfate reduction

Molecule: OP(O)(O)=S [thiophosphate]
- selectivity and potency as inhibitor of sulfidogenesis versus growth, in words [1]: weak inhibitors and nonselective; also recorded: very weak, nonselective inhibitors of sulfidogenesis

Molecule: [O]=[W](=[O])([O-])[O-] [tungstate]
- selectivity and potency as inhibitor of sulfidogenesis versus growth, in words [1]: specific inhibitors of sulfide production
- selectivity index (SI = growth IC50/sulfide IC50) [1]: 589

Molecule: [O]=[V]([O-])([O-])[O-] [vanadate]
- selectivity and potency as inhibitor of sulfidogenesis versus growth, in words [1]: specific inhibitors of sulfide production

Molecule: arsenate
- selectivity and potency as inhibitor of sulfidogenesis versus growth, in words [1]: not selective

Molecule: methanesulfonate
- selectivity and potency as inhibitor of sulfidogenesis versus growth, in words [1]: very weak and nonspecific inhibitors

Molecule: phosphite
- selectivity and potency as inhibitor of sulfidogenesis versus growth, in words [1]: weak inhibitors and nonselective; also recorded: very weak, nonselective inhibitors of sulfidogenesis
